Test results reported in a melting point compilation (Tetko et al.; mined from patent text by program, amines drawn as free bases though some values may be those of a salt).

Row | melting point | SMILES
1 | 222 to 224 °C | CC(=O)Nc1ccc(S(=O)(=O)Nc2ccn(CC3CC3)c(=O)n2)cc1
2 | 127 to 129 °C | COC(=O)C1=Cc2cc([N+](=O)[O-])ccc2N(C)CCC1
3 | 122 to 123 °C | CCN1CCCC1CNC(=O)c1sc(C=O)c(C)c1OC (configuration not stated)
4 | 181 to 183 °C | COc1cn(-c2cccc3c2OC(F)(F)O3)nc(-c2ccnn2-c2ccccc2)c1=O
5 | 78.8 to 79.7 °C | CCC(C)Cc1ccc(C(=O)O)cc1Br (configuration not stated)
6 | 111 to 112 °C | CC(OCc1ccc2ccccc2c1)(C(N)=O)C(F)(F)F (configuration not stated)
7 | 224 °C | Cn1c(=O)nc(-c2ccccc2)c2cc(Cl)ccc21
8 | 189 to 190 °C | Cc1c(NC(=O)CC(C)(C)C)cc2c(c1C)OC(C)(C)C2(O)c1cccc(C=O)c1 (configuration not stated)
9 | 247 to 249 °C | COC(=O)c1cnc2c3cc(NC(=O)CC(C)(C)C)ccc3ncn2c1=O
10 | 110 to 112 °C | CC(C)(CCl)C(=O)N(O)Cc1ccccc1F
11 | 100 to 102 °C | COC(=O)C1CCCn2c(=O)n(CSC(C)=O)c(=O)n21 (configuration not stated)
12 | 190 to 192 °C | Cc1c(-c2ccncc2)nc2n(c1=O)CCCN2CC(=O)c1ccccc1
13 | 199 to 201 °C | CCCc1cc(C(=O)NCCC(=O)O)ccc1OC(C(=O)NS(=O)(=O)c1ccc(C(C)C)cc1)c1ccc2c(c1)OCO2 (configuration not stated)
14 | 179 to 181 °C | O=C1c2ccccc2C(=O)N1CC(=O)N1c2ccccc2N(Cc2ccc(OCc3ccccc3)cc2)C(=O)[C@H]2CCC[C@H]21 (relative stereo)
15 | 100 to 110 °C | Nc1ncnc2c1nc(SCC(O)COc1ccccc1)n2C1OC(CO)C(O)C1O (configuration not stated)
16 | 162 to 164 °C | Cc1oc(-c2ccccc2)nc1COc1ccc(CCCC2OC(=O)NC2=O)cc1O (configuration not stated)
17 | 120 to 121 °C | Clc1ccc2ncc(Cl)nc2c1
18 | 194 to 196 °C | COc1cc(C(=O)NC2CCN(C)CC2)c(F)cc1Nc1ncc2c(n1)N(C1CCCC1)CC(F)(F)C(=O)N2C
19 | 177 °C | CC(C#Cc1ccc(C=Cc2ccc(F)cc2)s1)N(O)C(N)=O (configuration not stated)
20 | 78 to 80 °C | CC(C)c1nc(COCc2ccccc2)n(CCO)c1Sc1cc(Cl)cc(Cl)c1
21 | 77 to 80 °C | COc1nc(NC(C)C)nc(NC2CC2)n1
22 | 133 to 140 °C | N#Cc1ccccc1-c1ccc2[nH]c(Cc3ccccc3)nc2c1
23 | 170 to 171 °C | Cc1c(Cc2ccc(C(C)C)cc2)c2c(c(C)c1NC(=O)CC(C)(C)C)CC(C)(C)O2
24 | 67 °C | CCCCC(Cc1ccc(OCCN(CC)CC)cc1)(C(=O)NO)S(=O)(=O)c1ccc(OC)cc1 (configuration not stated)

Row | melting point | SMILES
25 | 175 to 180 °C | CN(C)C=Nc1cc(Cc2c(Cl)cccc2Cl)nc(Nc2ccc(C#N)cc2)n1
26 | 114 to 115 °C | Cc1cc(CSCCNC(=C[N+](=O)[O-])NCCc2cccc(O)c2)sc1CN(C)C
27 | 211 to 212 °C | CCOCc1nc2c(N)nc3cc(-c4ccccc4)ccc3c2n1CC(C)(C)O
28 | 108 to 110 °C | Clc1cc(Br)c2c(c1)COCO2
29 | 185 to 187 °C | Cn1cc(C(=O)O)c([N+](=O)[O-])n1
30 | 118 to 121 °C | COc1cc2c(cc1Nc1ncc(Cl)c(Nc3c(OC)ccc4c3CN(S(C)(=O)=O)CC(=O)N4)n1)CCN(CC(=O)N(C)C)CC2
31 | 155 °C | COP(=O)(Cc1cc(C(C)(C)C)c(O)c(C(C)(C)C)c1)OC
32 | 190 to 195 °C | Cc1oc2c(NC(=O)c3c(Cl)cccc3Cl)cccc2c1COC(=O)CCCC(=O)NC(P(=O)(O)O)P(=O)(O)O
33 | 238 to 239 °C | C=CCOc1ccccc1-c1nc2nc(SC)nnc2c(=O)[nH]1
34 | 133 to 135 °C | O=C(O)Cc1ccc2c(c1)C(=O)CC2
35 | 132 to 134 °C | CCN1C(=O)C(C)(C)C(=O)N(C)c2cc(CN(CCn3ccc4oc(C(F)(F)F)cc4c3=O)Cc3cccnc3C)ccc21
36 | 266 to 268 °C | Cc1n[nH]c(=O)c(-c2c(F)cc(F)cc2F)c1-c1ccc2ccccc2c1
37 | 46 to 48 °C | CCN(CC)c1ccc(C(=O)c2ccccc2)c(O)c1
38 | 230 to 243 °C | Nc1nc2cc3c(cc2[nH]1)OCO3
39 | 226 to 228 °C | O=C1C=CC2=CN=C(Cc3ccccc3)N3CCC(=C23)N1
40 | 231 °C | NNC(=O)C1(N)CCN(Cc2ccccc2)CC1
41 | 76 to 77 °C | Cc1cc(Oc2cccc(C(F)(F)F)c2)nn1C(N)=O
42 | 77 to 80 °C | O=Cc1ccc2c(c1)CC(Cc1ccccc1)O2 (configuration not stated)
43 | 176 to 188 °C | O=C(O)c1cc2cc(Cl)ccc2nc1N[C@@H](Cc1ccc(O)cc1)C(=O)O
44 | 103 to 117 °C | CCCNC(=O)C(C)Cc1ccc2c(c1)c(Cc1ccc(C(=O)NS(=O)(=O)c3ccccc3C)cc1OC)cn2C (configuration not stated)
45 | 36 to 37 °C | Nc1c(S)ccc2ccccc12
46 | 139 to 143 °C | CC(C)CC(C(=O)OCc1ccc([N+](=O)[O-])cc1)N(C(=O)OC(C)(C)C)C1CC1 (configuration not stated)
47 | 82 to 85 °C | COc1ccc(CCCN2C(=O)c3ccccc3C2=O)cc1OC
48 | 88.5 to 90.5 °C | COC(=O)CCCCCCCCCCCCCCCCCCCCCN1C(=O)c2ccccc2C1=O

Row | melting point | SMILES
49 | 103 to 106 °C | COP(=O)(OC)[C@H](C)NC(=O)[C@H](C)N
50 | 130 to 133 °C | CNC1=NN(C(=O)c2cccc([N+](=O)[O-])c2)C(C)(C)S1
51 | > 210 °C | Cc1cc(CO)c2c(N)c(C(N)=O)sc2n1
52 | 79 to 80 °C | CCOC(=O)c1ccc(O)c(F)c1
53 | 58 °C | O=C(O)C=CC(=O)N(CC1CO1)NCC1CO1 (configuration not stated)
54 | 135 to 136 °C | CNC(=O)NC1CCCCC1
55 | 193 to 197 °C | COc1ccc(NC(=O)c2ccc([N+](=O)[O-])cc2N)cc1
56 | 235 to 236 °C | Cc1scc2c1C(=O)Nc1ccccc1N2C(=O)Cl
57 | 134 to 136 °C | Cc1ccc2c(n1)N(CCCN1CCCC1)c1ccccc1N(C)C2=O
58 | 84 to 86 °C | COc1ccc(SC2CC(=O)N2CC(=O)NCCCCCCc2ccc(Cl)cc2)cc1 (configuration not stated)
59 | 130 to 131 °C | FC(F)(F)c1cc(-c2ccc(Cl)c(Cl)c2)nc2ccnn12
60 | 124 to 125 °C | O=Cc1ccc(-c2ccccc2Cl)cc1
61 | 109 to 111 °C | COC(=O)NC=Cc1ccc(OCC(O)CNC(C)CC(N)=O)cc1 (configuration not stated)
62 | 258 to 260 °C | CC(=O)Nc1ccc(S(=O)(=O)Nc2cccc(N(C)C(C)=O)c2)cc1
63 | > 300 °C | COc1ccc(-c2[nH]nc3c2C(=O)c2c(NC(=O)CN4CCC(CN)CC4)cccc2-3)cc1
64 | 109 to 110 °C | CC(C(O)C(C)(C)Cc1ccc(Cl)c(OC(F)(F)F)c1)n1cncn1 (configuration not stated)
65 | 164 to 165 °C | C=CCN(CC=C)c1nc(NC(=O)CCCC(=O)OC)n2oc(=O)nc2n1
66 | 140 to 147 °C | CNCc1ccc(-c2cc3ncnc(Nc4ccc5[nH]ccc5c4)c3s2)cc1
67 | 217 to 219 °C | CCOC(=O)Cn1c2c([nH]c(=O)c1=O)CCC1=C2C=C([N+](=O)[O-])CC1
68 | 238 to 239 °C | CCc1nc2c(N)nc3ccc(OCc4ccccc4)cc3c2n1C
69 | 82 to 84 °C | Cc1cc(OCC(O)CNC(C)(C)C)ccc1C=O (configuration not stated)
70 | 176 °C | COc1ccc(C(=O)N[C@H]2C[C@@H](c3cc(NC(=O)Cc4cccc5ccccc45)n[nH]3)C2)cc1

Row | SMILES | melting point
71 | CCO[PH](=O)C#Cc1c(C(C)C)c2ccccc2n1-c1ccc(F)cc1 (configuration not stated) | 80 to 82.5 °C
72 | CC12CC(=O)C3C(CCC4CC(O)CCC43C)C1CCC2C(=O)COc1ccc(N)cc1 (configuration not stated) | 179 to 180 °C
